Laboratory results published in patent US20230391748A1, “BICYCLIC INHIBITORS OF IRAK” (priority 2022, published 2023).
pIC50: −log10 of the molar value.

Legend:
[1] = tested on: TNF-α in Human Primary Monocyte-Derived Dendritic Cells; experiment: Gardiquimod-Induced TNF-α in Human Primary Monocyte-Derived Dendritic Cells; assay type: cell-based; conditions: Dendritic cell, IFNγ-primed monocyte-derived dendritic cells, 4 μg/ml Gardiquimod, 6 hours, TNF-α ELISA, read-out: TNFα (DC, GARD) (IC50)
Description: Gardiquimod-Induced TNF-α in Human Primary Monocyte-Derived Dendritic Cells
After 2 hours, the media including floating cells was carefully removed and 12 ml of fresh RPMI media (10% FBS) containing GM-CSF (100 ng/ml) and IL-4 (20 ng/ml) were added to the adherent monocytes. The monocytes were allowed to differentiate for 7 days at 37° C., 5% CO2 for 7 days, supplementing with fresh GM-CSF and IL-4 after 3 days. The differentiated dendritic cells (DC) were harvested by centrifugation (1200 rpm/5 min). The DCs were primed at 37° C., 5% CO2 for 24 hours with 50 ng/ml IFN-γ (1000 U/ml) at 50K/well in 100 μl/well of fresh RPMI media (10% FBS) in a white clear bottom 96 well plate.
The primed DCs were pre-incubated with test compound for 1 hour at 37° C., 5% CO2 by adding 100 μl of RPMI media containing 2× concentrated test compound per well (0.5% final DMSO concentration).
DCs were stimulated with Gardiquimod (10 μl per well of 20× concentrated Gardiquimod solution in RPMI media to give a final concentration of 4 μg/ml) at 37° C., 5% CO2 for an additional 6 hours. The supernatant (100 μl/well) was harvested to measure TNF-α by ELISA. […] The chemiluminescence values were entered into Athena (Rigel) for curve fitting, EC50 calculation, and database storage.
(§1) TNF-α ELISA was performed according to the vendor protocol, using 96 Well Flat-Bottom, MaxiSorp Black Immuno plates and 100 μL/well of supernatant. The plates were developed using 100 μL/well of Super Signal ELISA Pico Chemiluminescent Substrate. The plates were read with a luminometer, and the chemiluminescence values were entered into Athena (Rigel) for curve fitting, EC50 calculation, and database storage.

[2] = tested on: TNF-α in human PBMCs; experiment: R848-induced TNF-α in human PBMCs Assay; assay type: cell-based; conditions: Homo sapiens, PBMC, 4 h, read-out: TNFα (PBMC, R848) (IC50, μM)
Description: R848-induced TNF-α in human PBMCs Assay
100 μL/well PBMCs (200K/well) were seeded in 96-well flat-bottom tissue culture plates. […] 100 μL/well 2× compound was added to the PBMC in the tissue culture plates. […] The cells were stimulated with R848 for an additional 4 hours at 37° C., 5% CO2. The supernatant (100 μl/well) was harvested to measure TNF-α by ELISA. […] The chemiluminescence values were entered into Athena (Rigel) for curve fitting, EC50 calculation, and database storage.
as §1

[3] = biological target: IRAK4 (Homo sapiens (Human), UniProt Q9NWZ3); experiment: IRAK4 ADP-Glo Assay; assay type: biochemical; conditions: MBP substrate
Description: The ADP-Glo™ reagents were thawed at ambient temperature. The Kinase Detection Reagent was prepared by mixing kinase detection buffer with the lyophilized kinase detection substrate, and set aside.
A stock volume of 5× Reaction Kinase Buffer was made with a final concentration of 100 mM MgCl2, 200 mM Tris-HCl, and 0.5 mg/ml of BSA, in distilled H2O with a final pH7.4. A 2× working stock volume of Reaction Kinase Buffer was made containing a final concentration of 100 μM DTT.
The components of IRAK4 Enzyme were thawed on ice. Diluted IRAK4 in 1× Kinase Reaction Buffer (diluted from 2× buffer) was prepared at 5.0 ng/μl.
Then diluted 1:5 in 2× Reaction Buffer in a 96 well plate. 1.0 μl was transferred to a 384 well plate in duplicate. […] 1 μl of 1 mg/ml stock solution of MBP substrate was added NOTE: MBP can be combined with ATP mix with equal volume and then added at 2 μl/well. Final reaction volume was 5 μl.
The plate was centrifuged and the reaction mixture was incubated at room temperature for 60 minutes or at 30° C. for 30 minutes.
The reaction was terminated and the remaining ATP was depleted by adding 5 μl of ADP-Glo™ Reagent. The 384-well plate was centrifuged and then the reaction mixture was incubated for another 40 minutes at ambient temperature.
10 μl of the Kinase Detection Reagent was added. The plate was centrifuged and then the reaction mixture was incubated for another 30 minutes at ambient temperature.
The 384-well reaction plate was read using the WALLAC plate reader (Luminescence 0.1s).

[4] = tested on: IL23p19 in THP-1 Cells; experiment: LPS Induced IL23p19 in THP-1 Cells (with IFNγ Primed) Assay; assay type: cell-based; conditions: Homo sapiens, THP-1, 18 h, read-out: IL23 (THP, LPS) (IC50, μM)
Description: LPS Induced IL23p19 in THP-1 Cells (with IFNγ Primed) Assay
On day 1, 50K/well THP-1 cells were seeded and primed with IFNγ (50 ng/mL) in 384-well plates for about 18 hours in RPMI media with 10% FBS. […] 50 μL/well 2× compound was added to 50 μL/well THP-1 cells (with IFNγ primed) in duplicate in 384 well tissue culture plates. […] Day 3, after stimulation for 18 hours at 37° C., 5% CO2, the assay plate was centrifuged and 70 μL/well supernatant was harvested. IL-23p19 protein in 70 µL/well of supernatant was measured by sandwich ELISA, and 25 μl/well Cell Titer Glo reagent was added to the remaining cells to measure compound toxicity.
Maxisorp immuno ELISA plates were pre-coated with 25 μL/well of anti-IL-23p19 capture antibody (2.5 ug/mL) in PBS overnight at room temperature. […] 25 μL/well of biotin labeled anti-IL-12(p40/p70) detection antibody (100 ng/mL) in PBS with 1% BSA was added and the plates were incubated at room temperature for 2 hours with shaking. […] The plates were read with a luminometer, and the chemiluminescence values were entered into Athena (Rigel) for curve fitting, EC50 calculation, and database storage.

IRAK4, sequence (Q9NWZ3 whole entry): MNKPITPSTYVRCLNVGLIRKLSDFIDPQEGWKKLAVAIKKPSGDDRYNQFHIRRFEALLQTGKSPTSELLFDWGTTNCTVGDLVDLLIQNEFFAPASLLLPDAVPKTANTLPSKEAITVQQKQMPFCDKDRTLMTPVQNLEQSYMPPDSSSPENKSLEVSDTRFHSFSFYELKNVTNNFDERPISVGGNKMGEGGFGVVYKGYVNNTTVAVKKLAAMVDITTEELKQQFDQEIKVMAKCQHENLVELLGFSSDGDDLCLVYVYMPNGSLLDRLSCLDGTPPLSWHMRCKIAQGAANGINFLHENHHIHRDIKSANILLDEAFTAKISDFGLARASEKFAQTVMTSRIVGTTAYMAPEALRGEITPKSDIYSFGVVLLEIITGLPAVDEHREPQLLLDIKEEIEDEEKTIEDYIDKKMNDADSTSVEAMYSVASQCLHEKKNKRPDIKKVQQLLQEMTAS

| Structure (SMILES) | pIC50 [1] | IC50 [2] [µM] | pIC50 [3] | IC50 [4] [µM] |
| --- | --- | --- | --- | --- |
| CC(C)Oc1cc2c(OC[C@@H]3CCC(=O)N3)ncc(C#CC3(O)CCOCC3)c2cc1C(N)=O [Compound I-10, (S)-4-((4-hydroxytetrahydro-2H-pyran-4-yl)ethynyl)-7-isopropoxy-1-((5-oxopyrrolidin-2-yl)methoxy)isoquinoline-6-carboxamide] | 5.53 | 0.873 | 7.94 | 3.28 |
| CC(C)Oc1cc2c(O[C@@H]3CCCN(C(=O)CC#N)C3)ncc(C#CC3CNC3)c2cc1C(N)=O [Compound I-103, (R)-4-(azetidin-3-ylethynyl)-1-((1-(2-cyanoacetyl)piperidin-3-yl)oxy)-7-isopropoxyisoquinoline-6-carboxamide] | 6.08 | 0.441 | 8.28 | 9.35 |
| CC(C)Oc1cc2c(O[C@@H]3CCCN(C(=O)CC#N)C3)ncc(-c3cnn(C4CC4)c3)c2cc1C(N)=O [Compound I-114, (R)-1-((1-(2-cyanoacetyl)piperidin-3-yl)oxy)-4-(1-cyclopropyl-1H-pyrazol-4-yl)-7-isopropoxyisoquinoline-6-carboxamide] | 6.18 | 0.549 | 7.91 | 1.42 |
| CC(C)Oc1cc2c(OC[C@@H]3CCC(=O)N3)ncc(C#CC3CN(C(C)C)C3)c2cc1C(N)=O [Compound I-27, (S)-7-isopropoxy-4-((1-isopropylazetidin-3-yl)ethynyl)-1-((5-oxopyrrolidin-2-yl)methoxy)isoquinoline-6-carboxamide] | 6.29 | 0.176 | 8.25 | 0.634 |
| CC(C)Oc1cc2c(O[C@@H]3CCCN(C(=O)CC#N)C3)ncc(C#C[C@H]3C[C@@H](N(C)C)C3)c2cc1C(N)=O [Compound I-106, 1-(((R)-1-(2-cyanoacetyl)piperidin-3-yl)oxy)-4-((cis-3-(dimethylamino)cyclobutyl)ethynyl)-7-isopropoxyisoquinoline-6-carboxamide] | 7.27 | 0.363 | 8.49 | 0.436 |
| CC(C)Oc1cc2c(OC[C@@H]3CCC(=O)N3)ncc(-c3cnn([C@H]4C[C@@H](N(C)C)C4)c3)c2cc1C(N)=O [Compound I-43, 4-(1-(cis-3-(dimethylamino)cyclobutyl)-1H-pyrazol-4-yl)-7-isopropoxy-1-(((S)-5-oxopyrrolidin-2-yl)methoxy)isoquinoline-6-carboxamide] | 6.45 | 0.701 | 8.30 | 3.1 |
| CC(C)Oc1cc2c(O[C@@H]3CCCN(C(=O)CC#N)C3)ncc(-c3cnn(CCC4CCOCC4)c3)c2cc1C(N)=O [Compound I-119, (R)-1-((1-(2-cyanoacetyl)piperidin-3-yl)oxy)-7-isopropoxy-4-(1-(2-(tetrahydro-2H-pyran-4-yl)ethyl)-1H-pyrazol-4-yl)isoquinoline-6-carboxamide] | 5.99 | 2.51 | 7.74 | 2.22 |
| CC(C)Oc1cc2c(OC[C@@H]3CC(F)(F)C(=O)N3)ncc(-c3cnn(C4CCC4)c3)c2cc1C(N)=O [Compound I-68, (S)-4-(1-cyclobutyl-1H-pyrazol-4-yl)-1-((4,4-difluoro-5-oxopyrrolidin-2-yl)methoxy)-7-isopropoxyisoquinoline-6-carboxamide] | 6.26 | 0.406 | 8.02 | 0.286 |
| CCO[C@H]1C[C@@H](n2cc(-c3cnc(OC[C@@H]4CCC(=O)N4)c4cc(OC(C)C)c(C(N)=O)cc34)cn2)C1 [Compound I-42, 4-(1-(cis-3-ethoxycyclobutyl)-1H-pyrazol-4-yl)-7-isopropoxy-1-(((S)-5-oxopyrrolidin-2-yl)methoxy)isoquinoline-6-carboxamide] | 6.87 | 0.241 | 8.19 | 0.72 |
| CCO[C@H]1CC[C@H](n2cc(-c3cnc(OC[C@@H]4CC(F)(F)C(=O)N4)c4cc(OC(C)C)c(C(N)=O)cc34)cn2)CC1 [Compound I-77, 1-(((S)-4,4-difluoro-5-oxopyrrolidin-2-yl)methoxy)-4-(1-(trans-4-ethoxycyclohexyl)-1H-pyrazol-4-yl)-7-isopropoxyisoquinoline-6-carboxamide] | 6.46 | 0.12 | 8.15 | 0.152 |
| CC(C)Oc1cc2c(OC[C@@H]3CCC(=O)N3)ncc(-c3cnn(CCN4CCOCC4)c3)c2cc1C(N)=O [Compound I-38, (S)-7-isopropoxy-4-(1-(2-morpholinoethyl)-1H-pyrazol-4-yl)-1-((5-oxopyrrolidin-2-yl)methoxy)isoquinoline-6-carboxamide] | 5.39 | 1.49 | 7.68 | 3.41 |
| CC(C)Oc1cc2c(O[C@@H]3CCCN(C(=O)CC#N)C3)ncc(C#CC3CN(C)C3)c2cc1C(N)=O [Compound I-104, (R)-1-((1-(2-cyanoacetyl)piperidin-3-yl)oxy)-7-isopropoxy-4-((1-methylazetidin-3-yl)ethynyl)isoquinoline-6-carboxamide] | 6.80 | 0.237 | 8.15 | 1.76 |
| CC(C)Oc1cc2c(OC[C@@H]3CCC(=O)N3)ncc(C#CCC3CCOCC3)c2cc1C(N)=O [Compound I-11, (S)-7-isopropoxy-1-((5-oxopyrrolidin-2-yl)methoxy)-4-(3-(tetrahydro-2H-pyran-4-yl)prop-1-yn-1-yl)isoquinoline-6-carboxamide] | 6.70 | 0.32 | 7.98 | 0.474 |
| CC(C)Oc1cc2c(O[C@@H]3CCCN(C(=O)CC#N)C3)ncc(-c3cnn(C4CCC4)c3)c2cc1C(N)=O [Compound I-115, (R)-1-((1-(2-cyanoacetyl)piperidin-3-yl)oxy)-4-(1-cyclobutyl-1H-pyrazol-4-yl)-7-isopropoxyisoquinoline-6-carboxamide] | 6.35 | 0.443 | 7.88 | 0.911 |
| CC(C)Oc1cc2c(OC[C@@H]3CCC(=O)N3)ncc(-c3cnn(C4CCCC4)c3)c2cc1C(N)=O [Compound I-34, (S)-4-(1-cyclopentyl-1H-pyrazol-4-yl)-7-isopropoxy-1-((5-oxopyrrolidin-2-yl)methoxy)isoquinoline-6-carboxamide] | 6.33 | 0.295 | 8.11 | 1.3 |
